Measured values reported in US8404708B2, “Dual NK1/NK3 receptor antagonists” (Hoffmann-La Roche Inc., priority 2004, dated 2013).

Assays:
human NK1 receptor = human NK1 receptor (Homo sapiens, UniProt P25103); assay: NK1 receptor binding, [3H]substance P displacement, CHO cell membranes; settings: first value of the cell pKi NK1/NK3; human NK1 receptor, [3H]substance P
[1] = biological target: T1, Recombinant human NK3 (hNK3) receptor (Homo sapiens, UniProt P29371); assay: NK3 receptor binding, [3H]SR142801 displacement, membrane preparations; settings: second value of the cell pKi NK1/NK3; hNK3 receptor, [3H]SR142801
T1 construct: expressed in transfected cells
T1 sequence (P29371 1-465): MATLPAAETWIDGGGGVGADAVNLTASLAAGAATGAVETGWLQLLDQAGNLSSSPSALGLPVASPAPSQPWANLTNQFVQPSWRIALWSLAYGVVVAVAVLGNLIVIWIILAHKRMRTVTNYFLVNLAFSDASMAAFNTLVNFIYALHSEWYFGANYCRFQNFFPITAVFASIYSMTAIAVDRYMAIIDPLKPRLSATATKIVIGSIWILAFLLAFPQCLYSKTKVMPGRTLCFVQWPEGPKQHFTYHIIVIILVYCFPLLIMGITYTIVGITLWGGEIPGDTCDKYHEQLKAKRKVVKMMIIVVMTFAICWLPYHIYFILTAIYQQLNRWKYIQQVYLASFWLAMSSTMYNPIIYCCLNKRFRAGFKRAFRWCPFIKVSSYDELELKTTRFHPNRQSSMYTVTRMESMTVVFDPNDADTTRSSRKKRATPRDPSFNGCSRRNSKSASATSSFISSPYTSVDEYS
How it was run: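 Room-temperature, 90-min filtration binding assay using about 2.5 μg recombinant receptor membranes per well; separation on polyethyleneimine-treated glass-fibre (GF/C) filters and liquid scintillation read-out, with 10 μM SB222200 for nonspecific binding.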

Sequence of human NK1 receptor (P25103 whole entry): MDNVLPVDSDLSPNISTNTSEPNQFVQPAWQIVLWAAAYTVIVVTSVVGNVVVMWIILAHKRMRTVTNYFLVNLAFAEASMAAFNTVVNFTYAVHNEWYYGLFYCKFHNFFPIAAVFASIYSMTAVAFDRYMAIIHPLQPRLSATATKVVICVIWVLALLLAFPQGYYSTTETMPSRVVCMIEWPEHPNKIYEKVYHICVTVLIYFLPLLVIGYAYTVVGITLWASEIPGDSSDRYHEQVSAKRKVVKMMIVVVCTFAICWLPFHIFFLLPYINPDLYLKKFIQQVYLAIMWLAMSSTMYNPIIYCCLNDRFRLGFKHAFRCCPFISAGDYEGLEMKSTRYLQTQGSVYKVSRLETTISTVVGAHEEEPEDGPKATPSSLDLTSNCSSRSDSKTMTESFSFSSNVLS

Row | SMILES | Ki (human NK1 receptor) [nM] | Ki [1] [nM]
1 | Cc1cc(F)ccc1-c1cc(N2CCC(=O)C2)ncc1N(C)C(=O)C(C)(C)c1cc(C(F)(F)F)cc(C(F)(F)F)c1 [Example 111, 2-(3,5-Bis-trifluoromethyl-phenyl)-N-[4-(4-fluoro-2-methyl-phenyl)-6-(3-oxo-pyrrolidin-1-yl)-pyridin-3-yl]-N-methyl-isobutyramide] | 2.09 | 4.07
2 | CN(C(=O)C(C)(C)c1cc(C(F)(F)F)cc(C(F)(F)F)c1)c1cnc(N2CCC(N)CC2)cc1-c1ccccc1Cl [Example 112, N-[4-Amino-4′-(2-chloro-phenyl)-3,4,5,6-tetrahydro-2H-[1,2′]bipyridinyl-5′-yl]-2-(3,5-bis-trifluoromethyl-phenyl)-N-methyl-isobutyramide] | 0.562 | 5.5
3 | CN(C(=O)C(C)(C)c1cc(C(F)(F)F)cc(C(F)(F)F)c1)c1cnc(N2CCC(NS(C)(=O)=O)CC2)cc1-c1ccccc1Cl [Example 113, 2-(3,5-Bis-trifluoromethyl-phenyl)-N-[4′-(2-chloro-phenyl)-4-methanesulfonylamino-3,4,5,6-tetrahydro-2H-[1,2′]bipyridinyl-5′-yl]-N-methyl-isobutyramide] | 5.75 | 3.47
4 | CC(=O)NC1CCN(c2cc(-c3ccc(F)cc3C)c(N(C)C(=O)C(C)(C)c3cc(C(F)(F)F)cc(C(F)(F)F)c3)cn2)CC1 [Example 114, N-[4-Acetylamino-4′-(4-fluoro-2-methyl-phenyl)-3,4,5,6-tetrahydro-2H-[1,2′]bipyridinyl-5′-yl]-2-(3,5-bis-trifluoromethyl-phenyl)-N-methyl-isobutyramide] | 0.603 | 16.2
5 | CN(CCO)c1cc(-c2ccc(F)cc2)c(N(C)C(=O)C(C)(C)c2cc(C(F)(F)F)cc(C(F)(F)F)c2)cn1 [Example 115, 2-(3,5-bis-trifluoromethyl-phenyl)-N-{4-(4-fluoro-phenyl)-6-[(2-hydroxy-ethyl)-methyl-amino]-pyridin-3-yl}-N-methyl-isobutyramide] | 1.86 | 30.2
6 | CCN(CCO)c1cc(-c2ccc(F)cc2)c(N(C)C(=O)C(C)(C)c2cc(C(F)(F)F)cc(C(F)(F)F)c2)cn1 [Example 116, 2-(3,5-Bis-trifluoromethyl-phenyl)-N-[6-[ethyl-(2-hydroxy-ethyl)-amino]-4-(4-fluoro-phenyl)-pyridin-3-yl]-N-methyl-isobutyramide] | 3.89 | 32.4
7 | Cc1ccccc1-c1cc(N(C)CCO)ncc1N(C)C(=O)C(C)(C)c1cc(C(F)(F)F)cc(C(F)(F)F)c1 [Example 117, 2-(3,5-Bis-trifluoromethyl-phenyl)-N-{6-[(2-hydroxy-ethyl)-methyl-amino]-4-o-tolyl-pyridin-3-yl}-N-methyl-isobutyramide] | 2.09 | 3.09
8 | CCN(CCO)c1cc(-c2ccccc2C)c(N(C)C(=O)C(C)(C)c2cc(C(F)(F)F)cc(C(F)(F)F)c2)cn1 [Example 118, 2-(3,5-Bis-trifluoromethyl-phenyl)-N-{6-[ethyl-(2-hydroxy-ethyl)-amino]-4-o-tolyl-pyridin-3-yl}-N-methyl-isobutyramide] | 3.63 | 4.57
9 | CCCN(CCO)c1cc(-c2ccccc2C)c(N(C)C(=O)C(C)(C)c2cc(C(F)(F)F)cc(C(F)(F)F)c2)cn1 [Example 119, 2-(3,5-Bis-trifluoromethyl-phenyl)-N-{6-[(2-hydroxy-ethyl)-propyl-amino]-4-o-tolyl-pyridin-3-yl}-N-methyl-isobutyramide] | 3.98 | 2.29

Other lines, results leading:

Row | Ki (human NK1 receptor) [nM] | Ki [1] [nM] | SMILES
10 | 1.38 | 10 | Cc1ccccc1-c1cc(NC[C@H](C)O)ncc1N(C)C(=O)C(C)(C)c1cc(C(F)(F)F)cc(C(F)(F)F)c1 [Example 120, (S)-2-(3,5-Bis-trifluoromethyl-phenyl)-N-[6-(2-hydroxy-propylamino)-4-o-tolyl-pyridin-3-yl]-N-methyl-isobutyramide]
11 | 2.88 | 11 | Cc1ccccc1-c1cc(N(CC(C)O)CC(C)O)ncc1N(C)C(=O)C(C)(C)c1cc(C(F)(F)F)cc(C(F)(F)F)c1 (centres unmarked) [Example 121, N-{6-[Bis-(2-hydroxy-propyl)-amino]-4-o-tolyl-pyridin-3-yl}-2-(3,5-bis-trifluoromethyl-phenyl)-N-methyl-isobutyramide]
12 | 1.91 | 19.5 | Cc1ccccc1-c1cc(NC[C@H](O)CO)ncc1N(C)C(=O)C(C)(C)c1cc(C(F)(F)F)cc(C(F)(F)F)c1 [Example 122, (S)-2-(3,5-Bis-trifluoromethyl-phenyl)-N-[6-(2,3-dihydroxy-propylamino)-4-o-tolyl-pyridin-3-yl]-N-methyl-isobutyramide]
13 | 2.51 | 12.6 | Cc1ccccc1-c1cc(NC[C@@H](O)CO)ncc1N(C)C(=O)C(C)(C)c1cc(C(F)(F)F)cc(C(F)(F)F)c1 [Example 123, (R)-2-(3,5-Bis-trifluoromethyl-phenyl)-N-[6-(2,3-dihydroxy-propylamino)-4-o-tolyl-pyridin-3-yl]-N-methyl-isobutyramide]
14 | 2.63 | 13.8 | CC(O)CN(CC(C)O)c1cc(-c2ccccc2Cl)c(N(C)C(=O)C(C)(C)c2cc(C(F)(F)F)cc(C(F)(F)F)c2)cn1 (centres unmarked) [Example 124, N-[6-[Bis-(2-hydroxy-propyl)-amino]-4-(2-chloro-phenyl)-pyridin-3-yl]-2-(3,5-bis-trifluoromethyl-phenyl)-N-methyl-isobutyramide]
15 | 2.82 | 13.8 | CN(C(=O)C(C)(C)c1cc(C(F)(F)F)cc(C(F)(F)F)c1)c1cnc(NC[C@H](O)CO)cc1-c1ccccc1Cl [Example 125, (S)-2-(3,5-Bis-trifluoromethyl-phenyl)-N-[4-(2-chloro-phenyl)-6-(2,3-dihydroxy-propylamino)-pyridin-3-yl]-N-methyl-isobutyramide]
16 | 2.51 | 7.76 | CN(C(=O)C(C)(C)c1cc(C(F)(F)F)cc(C(F)(F)F)c1)c1cnc(NC[C@@H](O)CO)cc1-c1ccccc1Cl [Example 126, (R)-2-(3,5-Bis-trifluoromethyl-phenyl)-N-[4-(2-chloro-phenyl)-6-(2,3-dihydroxy-propylamino)-pyridin-3-yl]-N-methyl-isobutyramide]
17 | 2.19 | 1.51 | Cc1c(F)cccc1-c1cc(N(CCO)CCO)ncc1N(C)C(=O)C(C)(C)c1cc(C(F)(F)F)cc(C(F)(F)F)c1 [Example 127, N-[6-[Bis-(2-hydroxy-ethyl)-amino]-4-(3-fluoro-2-methyl-phenyl)-pyridin-3-yl]-2-(3,5-bis-trifluoromethyl-phenyl)-N-methyl-isobutyramide]
18 | 2.63 | 5.62 | Cc1ccc(F)cc1-c1cc(N(CCO)CCO)ncc1N(C)C(=O)C(C)(C)c1cc(C(F)(F)F)cc(C(F)(F)F)c1 [Example 128, N-[6-[Bis-(2-hydroxy-ethyl)-amino]-4-(5-fluoro-2-methyl-phenyl)-pyridin-3-yl]-2-(3,5-bis-trifluoromethyl-phenyl)-N-methyl-isobutyramide]
19 | 0.851 | 2.63 | CN(C(=O)C(C)(C)c1cc(C(F)(F)F)cc(C(F)(F)F)c1)c1cnc(N2C[C@H](O)C[C@H]2CO)cc1-c1ccccc1Br [Example 129, (2S,4R)-2-(3,5-Bis-trifluoromethyl-phenyl)-N-[4-(2-bromo-phenyl)-6-(4-hydroxy-2-hydroxymethyl-pyrrolidin-1-yl)-pyridin-3-yl]-N-methyl-isobutyramide]
